For the first test, the target named is phosphorylated active hERK2 enzyme (Homo sapiens (Human), UniProt P28482).
Sequence of phosphorylated active hERK2 enzyme (P28482 whole entry): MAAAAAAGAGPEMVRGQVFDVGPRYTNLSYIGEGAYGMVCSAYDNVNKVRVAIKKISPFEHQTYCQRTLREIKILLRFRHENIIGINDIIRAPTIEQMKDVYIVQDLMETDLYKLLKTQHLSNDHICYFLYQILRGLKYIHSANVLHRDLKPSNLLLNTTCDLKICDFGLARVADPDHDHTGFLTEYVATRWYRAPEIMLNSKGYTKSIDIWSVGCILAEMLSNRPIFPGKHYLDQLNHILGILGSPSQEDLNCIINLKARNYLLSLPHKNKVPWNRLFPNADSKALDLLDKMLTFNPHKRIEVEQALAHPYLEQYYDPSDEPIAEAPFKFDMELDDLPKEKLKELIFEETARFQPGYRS
Conditions: not given
With `Cc1cc(-n2ncc3cc(NC(=O)N[C@H]4CCC[C@@H]4c4ccccc4)ncc32)ccn1` (racemic) [Example 168, Racemic trans 1-[1-(2-methylpyridin-4-yl)-1H-pyrazolo[3,4-c]pyridin-5-yl]-3-[(1S,2R) and (1R,2S)-2-phenylcyclopentyl]urea], it took 7.34 nM to reach half-maximal inhibition (IC50).

Regarding `Cc1cc(-n2ncc3cc(NC(=O)N[C@H]4CCC[C@@H]4Oc4ccc(F)cc4)ncc32)ccn1` (racemic) [Example 166, Racemic trans 1-[(1S,2S) and (1R,2R)-2-(4-fluorophenoxy)cyclopentyl]-3-[1-(2-methylpyridin-4-yl)-1H-pyrazolo[3,4-c]-pyridin-5-yl)urea], the IC50 was 66.6 nM.

Still in this test, the particulars now being: read-out: ERK2 IC50; IMAP-FP assay; 0.5 nM hERK2, 30 μM ATP; 10 point titration, 3 μM starting concentration.
On to `C[C@@H](NC(=O)Nc1cc2cnn(CC(F)(F)F)c2c(CO)n1)c1ccccc1` [Example 314, 1-[7-(hydroxymethyl)-1-(2,2,2-trifluoroethyl)-1H-pyrazolo[3,4-c]pyridin-5-yl]-3-[(1R)-1-phenylethyl]urea], for which the IC50 came out at 175 nM.

Regarding `Cc1cc(-n2ncc3cc(NC(=O)NC4CCN(Cc5ccccc5C#N)C4)ncc32)ccn1` (stereo not drawn) [Example 280, 1-[1-(2-cyanobenzyl)pyrrolidin-3-yl]-3-[1-(2-methylpyridin-4-yl)-1H-pyrazolo[3,4-c]pyridin-5-yl]urea], the IC50 came out at 4.35 nM.

On to `C[C@@H](NC(=O)Nc1cc2cnn(C)c2c(CO)n1)c1ccccc1` [Example 298, (R)-1-(7-(Hydroxymethyl)-1-methyl-1H-pyrazolo[3,4-c]pyridin-5-yl)-3-(1-phenylethyl)urea], for which the IC50 was determined as 60.4 nM.

As to `COCCNCc1nc(NC(=O)N[C@H](C)c2ccccc2)cc2cnn(-c3ccc(F)cc3)c12` [Example 318, 1-[1-(4-Fluorophenyl)-7-{[(2-methoxyethyl)amino]methyl}-1H-pyrazolo[3,4-c]pyridin-5-yl]-3-[(1R)-1-phenylethyl]urea], the IC50 worked out at 141 nM.

As to `CCO[C@H]1CN(Cc2ccccc2C(F)(F)F)C[C@@H]1NC(=O)Nc1cc2cnn(-c3ccnc(C)c3)c2cn1` [Example 279, 1-{(3S,4S)-4-ethoxy-1-[2-(trifluoromethyl)benzyl]pyrrolidin-3-yl}-3-[1-(2-methylpyridin-4-yl)-1H-pyrazolo[3,4-c]pyridin-5-yl]urea], the IC50 came to 1750 nM.

Turning to `Cc1cc(-n2ncc3cc(NC(=O)N[C@H](Cn4ccnc4)c4ccccc4)ncc32)ccn1` [Example 134, 1-[(1S)-2-(1H-imidazol-1-yl)-1-phenylethyl]-3-[1-(2-methylpyridin-4-yl)-1H-pyrazolo[3,4-c]pyridin-5-yl]urea], the half-maximal inhibitory concentration (IC50) turned out to be 475 nM.

Consider `O=C(Nc1cc2cnn(Cc3ccncc3)c2cn1)N[C@H](CO)c1ccccc1` [Example 261, 1-[(1S)-2-hydroxy-1-phenylethyl]-3-[1-(pyridin-4-ylmethyl)-1H-pyrazolo[3,4-c]pyridin-5-yl]urea], for which the IC50 came out at 2430 nM.

Turning to `Cc1cc(-n2ncc3cc(NC(=O)NCC(c4ccccc4)N4CCCCC4)ncc32)ccn1` (stereo not drawn) [Example 50, 1-[1-(2-methylpyridin-4-yl)-1H-pyrazolo[3,4-c]pyridin-5-yl]-3-(2-phenyl-2-piperidin-1-ylethyl)urea], the IC50 was found to be 198 nM.

As for `C[C@@H](NC(=O)Nc1cc2cnn(C)c2cn1)c1ccc(F)cc1` [Example 232, 1-[(1R)-1-(4-fluorophenyl)ethyl]-3-(1-methyl-1H-pyrazolo[3,4-c]pyridin-5-yl)urea], the IC50 is 579 nM.

As to `Cc1cc(-n2ncc3cc(NC(=O)NC4CC(=O)N(C)C4)ncc32)ccn1` (stereo not drawn) [Example 22, 1-(1-methyl-5-oxopyrrolidin-3-yl)-3-[1-(2-methylpyridin-4-yl)-1H-pyrazolo[3,4-c]pyridin-5-yl)urea], the IC50 was found to be 181 nM.

For `Cc1cc(-n2ncc3cc(NC(=O)N[C@H]4CN(C)C[C@@H]4c4ccccc4C)ncc32)ccn1` [Example 180, 1-[(3R,4S)-1-methyl-4-(2-methylphenyl)pyrrolidin-3-yl]-3-[1-(2-methylpyridin-4-yl)-1H-pyrazolo[3,4-c]pyridin-5-yl]urea], the IC50 came to 0.28 nM.

As to `O=C(NCc1ccc(Cl)c(Cl)c1)Nc1cc2cnn(-c3ccncc3)c2cn1` [Example 12, 1-(3,4-dichlorobenzyl)-3-(1-pyridin-4-yl-1H-pyrazolo[3,4-c]pyridin-5-yl)urea], the IC50 is 0.9 nM.

As for `CC(C)n1ncc2cc(NC(=O)N[C@H](C)c3ccccc3)nc(CO)c21` [Example 302, 1-[7-(hydroxymethyl)-1-(1-methylethyl)-1H-pyrazolo[3,4-c]pyridin-5-yl]-3-[(1R)-1-phenylethyl]urea], the IC50 turned out to be 62.2 nM.

With `Cc1cc(-n2ncc3cc(NC(=O)N[C@H]4CCC[C@@H]4Oc4cccnc4)ncc32)ccn1` [Example 179, 1-[1-(2-methylpyridin-4-yl)-1H-pyrazolo[3,4-c]pyridin-5-yl]-3-[(1S,2S)-2-(pyridin-3-yloxy)cyclopentyl]urea], the IC50 was 511 nM.

As for `CC(C)Cn1ncc2cc(NC(=O)N[C@H](C)c3ccccc3)nc(CO)c21` [Example 306, 1-[7-(hydroxymethyl)-1-(2-methylpropyl)-1H-pyrazolo[3,4-c]pyridin-5-yl]-3-[(1R)-1-phenylethyl]urea], the IC50 came to 178 nM.

On to `Cc1cc(-n2ncc3cc(NC(=O)N[C@@H](c4ccccc4)C(F)F)ncc32)ccn1` [Example 81, 1-[(1S)-2,2-difluoro-1-phenylethyl]-3-[1-(2-methylpyridin-4-yl)-1H-pyrazolo[3,4-c]pyridin-5-yl)urea], for which the IC50 stood at 914 nM.

In the case of `Cc1cc(-n2ncc3cc(NC(=O)NCC4(N(C)C)CCCCC4)ncc32)ccn1` [Example 100, 1-{[1-(dimethylamino)cyclohexyl]methyl}-3-[1-(2-methylpyridin-4-yl)-1H-pyrazolo[3,4-c]pyridin-5-yl)urea], the IC50 amounted to 1210 nM.

Turning to `Cc1cc(-n2ncc3cc(NC(=O)NC(CCN(C)C)c4ccccc4)ncc32)ccn1` (stereo not drawn) [Example 51, 1-[3-(dimethylamino)-1-phenylpropyl]-3-[1-(2-methylpyridin-4-yl)-1H-pyrazolo[3,4-c]pyridin-5-yl)urea], the IC50 is 2.7 nM.

Take `Cc1cc(-n2ncc3cc(NC(=O)NCC4Cc5ccccc5N(C)C4)ncc32)ccn1` (stereo not drawn) [Example 99, 1-[1-(2-methylpyridin-4-yl)-1H-pyrazolo[3,4-c]pyridin-5-yl]-3-[(1-methyl-1,2,3,4-tetrahydroquinolin-3-yl)methyl]urea]: the IC50 worked out at 2.31 nM.

Turning to `Cc1cc(-n2ncc3cc(NC(=O)N[C@@H]4[C@@H](C)N(C)C[C@H]4c4ccccc4C)ncc32)ccn1` [Example 104, 1-[(2R,3S,4R)-1,2-dimethyl-4-(2-methyl-phenyl)pyrrolidin-3-yl]-3-[1-(2-methylpyridin-4-yl)-1H-pyrazolo[3,4-c]pyridin-5-yl]urea], the IC50 amounted to 35.5 nM.

Consider `Cc1cc(-n2ncc3cc(NC(=O)N[C@@H]4CN(C)C[C@H]4c4ccccc4C)ncc32)ccn1` [Example 190, 1-[(3S,4R)-1-methyl-4-(2-methylphenyl)pyrrolidin-3-yl]-3-[1-(2-methylpyridin-4-yl)-1H-pyrazolo[3,4-c]pyridin-5-yl]urea], for which the IC50 came out at 11.7 nM.

Turning to `O=C(NCc1ccc(Cl)cc1)Nc1cc2cnn(-c3ccncc3)c2cn1` [Example 42, 1-(4-chlorobenzyl)-3-(1-pyridin-4-yl-1H-pyrazolo[3,4-c]pyridin-5-yl)urea], the concentration for half-maximal inhibition (IC50) was 8.03 nM.

As to `Cc1cc(-n2ncc3cc(NC(=O)NCc4cccc(NS(C)(=O)=O)c4)ncc32)ccn1` [Example 32, N-{3-[({[1-(2-methylpyridin-4-yl)-1H-pyrazolo[3,4-c]pyridin-5-yl]carbamoyl}amino)methyl]phenyl}methanesulfonamide], the half-inhibitory concentration (IC50) turned out to be 0.442 nM.

As for `Cc1cc(-n2ncc3cc(NC(=O)NCc4ccc(-n5cccn5)cc4)ncc32)ccn1` [Example 76, 1-[1-(2-methylpyridin-4-yl)-1H-pyrazolo[3,4-c]pyridin-5-yl]-3-[4-(1H-pyrazol-1-yl)benzyl]urea], the IC50 was found to be 1110 nM.

For the compound `CCNC(=O)n1ncc2cc(NC(=O)N[C@H](C)c3ccccc3)ncc21` [Example 231, N-ethyl-5-({[(1R)-1-phenylethyl]carbamoyl}amino)-1H-pyrazolo[3,4-c]pyridine-1-carboxamide], the IC50 came to 64.1 nM.

Turning to `Cc1cc(-n2ncc3cc(NC(=O)NCc4ccc5c(c4)CC(=O)N5)ncc32)ccn1` [Example 74, 1-[1-(2-methylpyridin-4-yl)-1H-pyrazolo[3,4-c]pyridin-5-yl]-3-[(2-oxo-2,3-dihydro-1H-indol-5-yl)methyl]urea], the 50% inhibitory concentration (IC50) came out at 73.1 nM.

For the compound `COC[C@@H](NC(=O)Nc1cc2cnn(-c3ccnc(C)c3)c2cn1)c1ccccn1` [Example 210, 1-[(1S)-2-methoxy-1-pyridin-2-ylethyl]-3-[1-(2-methylpyridin-4-yl)-1H-pyrazolo[3,4-c]pyridin-5-yl]urea], the IC50 was 745 nM.

`Cc1cc(-n2ncc3cc(NC(=O)N[C@H]4CCN(C)C4)ncc32)ccn1` [Example 21, 1-[1-(2-methylpyridin-4-yl)-1H-pyrazolo[3,4-c]pyridin-5-yl]-3-[(3S)-1-methylpyrrolidin-3-yl)urea]: the IC50 stood at 767 nM.

Turning to `Cc1cc(-n2ncc3cc(NC(=O)N[C@H]4CCN(Cc5c(F)cccc5F)C4)ncc32)ccn1` [Example 282, 1-[(3S)-1-(2,6-difluorobenzyl)pyrrolidin-3-yl]-3-[1-(2-methylpyridin-4-yl)-1H-pyrazolo[3,4-c]pyridin-5-yl]urea], the IC50 is 169 nM.

For `C[C@H](NC(=O)Nc1cc2cnn(-c3ccc(F)cc3)c2cn1)c1ccccn1` [Example 221, 1-[1-(4-fluorophenyl)-1H-pyrazolo[3,4-c]pyridin-5-yl]-3-[(1S)-1-pyridin-2-ylethyl]urea], the IC50 was 1790 nM.

Consider `Cc1cc(-n2ncc3cc(NC(=O)NC4CCCN(c5ccccc5)C4)ncc32)ccn1` (stereo not drawn) [Example 82, 1H-pyrazolo[3,4-c]pyridin-1-[1-(2-methylpyridin-4-yl)-5-yl]-3-(1-phenylpiperidin-3-yl)urea], for which the IC50 worked out at 7.61 nM.

The values are drawn from patent publication US9884048B2, “ERK inhibitors” (Merck Sharp & Dohme Corp., priority 2014, dated 2018).
